The record followed here is patent US11981658B2, “Substituted aminopyridine compounds as EGFR inhibitors” (YUHAN CORPORATION, priority 2021, dated 2024).

Read-outs that look alike come from different tables or passages of the source.

The target of experiment [1] is EGFR Del19/C797S (Homo sapiens, UniProt P00533, C797S/DEL746-750). As to the kind of experiment: Biochemical EGFR kinase inhibition assay (Lance Ultra TR-FRET), double mutant del19/C797S. In outline: (§1)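 Enzyme reactions lasted 1 hour at room temperature with test compounds between 0.003 and 10 μM, followed by 10 mM EDTA quench.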
For orientation: TR-FRET usually uses a lanthanide donor and a delayed reading to cut background.

The target in experiment [2] is EGFR L858R/C797S (Homo sapiens, UniProt P00533, C797S/L858R). Description: Biochemical EGFR kinase inhibition assay (Lance Ultra TR-FRET), double mutant L858R/C797S. In outline: as §1
Experiment [3] has as its target EGFR Del19/T790M/C797S (Homo sapiens, UniProt P00533, C797S/DEL746-750/T790M). Description: Biochemical EGFR kinase inhibition assay (Lance Ultra TR-FRET), triple mutant del19/T790M/C797S. The method in brief: as §1
The target in experiment [4] is EGFR wildtype (WT) (Homo sapiens, UniProt P00533). Description: Biochemical EGFR kinase inhibition assay (Lance Ultra TR-FRET), wildtype. The method in brief:
as §1

The target of experiment [5] is EGFR L858R/T790M/C797S (Homo sapiens, UniProt P00533, C797S/L858R/T790M). Description: Biochemical EGFR kinase inhibition assay (Lance Ultra TR-FRET), triple mutant L858R/T790M/C797S. The method in brief:
as §1

Setting [6] is: ATP at Km, read-out: IC50 Del19/C797S (nM), Km ATP.
The mark [7] stands for this setting: IC50 Del19/C797S (nM), 100 μM ATP.
Where [8] appears, read: ATP at Km, read-out: IC50 L858R/C797S (nM), Km ATP.
[9] abbreviates: IC50 L858R/C797S (nM), 100 μM ATP.
The mark [10] stands for this setting: ATP at Km, read-out: IC50 Del19/T790M/C797S (nM), Km ATP.
Where [11] appears, read: IC50 Del19/T790M/C797S (nM), 100 μM ATP.
The mark [12] stands for this setting: ATP at Km, read-out: IC50 WT (nM), Km ATP.
The mark [13] stands for this setting: ATP at Km, read-out: IC50 L858R/T790M/C797S (nM), Km ATP.
Setting [14] is: IC50 L858R/T790M/C797S (nM), 100 μM ATP.
[15] abbreviates: Km ATP, read-out: IC50 Del19/C797S (nM), Km ATP.
Where [16] appears, read: Km ATP, read-out: IC50 L858R/C797S (nM), Km ATP.
The mark [17] stands for this setting: Km ATP, read-out: IC50 WT (nM), Km ATP.
Where [18] appears, read: Km ATP, read-out: IC50 Del19/T790M/C797S (nM), Km ATP.
The mark [19] stands for this setting: Km ATP, read-out: IC50 L858R/T790M/C797S (nM), Km ATP.
Where [20] appears, read: Km ATP, read-out: IC50 Del19/C797S (nM) Km ATP.
[21] abbreviates: Km ATP, read-out: IC50 L858R/C797S (nM) Km ATP.
Setting [22] is: Km ATP, read-out: IC50 Del19/T790M/C797S (nM) Km ATP.
Where [23] appears, read: Km ATP, read-out: IC50 WT (nM) Km ATP.
Where [24] appears, read: Km ATP, read-out: IC50 L858R/T790M/C797S (nM) Km ATP.

EGFR L858R/T790M/C797S, sequence (P00533 25-1210 T790M/C797S/L858R): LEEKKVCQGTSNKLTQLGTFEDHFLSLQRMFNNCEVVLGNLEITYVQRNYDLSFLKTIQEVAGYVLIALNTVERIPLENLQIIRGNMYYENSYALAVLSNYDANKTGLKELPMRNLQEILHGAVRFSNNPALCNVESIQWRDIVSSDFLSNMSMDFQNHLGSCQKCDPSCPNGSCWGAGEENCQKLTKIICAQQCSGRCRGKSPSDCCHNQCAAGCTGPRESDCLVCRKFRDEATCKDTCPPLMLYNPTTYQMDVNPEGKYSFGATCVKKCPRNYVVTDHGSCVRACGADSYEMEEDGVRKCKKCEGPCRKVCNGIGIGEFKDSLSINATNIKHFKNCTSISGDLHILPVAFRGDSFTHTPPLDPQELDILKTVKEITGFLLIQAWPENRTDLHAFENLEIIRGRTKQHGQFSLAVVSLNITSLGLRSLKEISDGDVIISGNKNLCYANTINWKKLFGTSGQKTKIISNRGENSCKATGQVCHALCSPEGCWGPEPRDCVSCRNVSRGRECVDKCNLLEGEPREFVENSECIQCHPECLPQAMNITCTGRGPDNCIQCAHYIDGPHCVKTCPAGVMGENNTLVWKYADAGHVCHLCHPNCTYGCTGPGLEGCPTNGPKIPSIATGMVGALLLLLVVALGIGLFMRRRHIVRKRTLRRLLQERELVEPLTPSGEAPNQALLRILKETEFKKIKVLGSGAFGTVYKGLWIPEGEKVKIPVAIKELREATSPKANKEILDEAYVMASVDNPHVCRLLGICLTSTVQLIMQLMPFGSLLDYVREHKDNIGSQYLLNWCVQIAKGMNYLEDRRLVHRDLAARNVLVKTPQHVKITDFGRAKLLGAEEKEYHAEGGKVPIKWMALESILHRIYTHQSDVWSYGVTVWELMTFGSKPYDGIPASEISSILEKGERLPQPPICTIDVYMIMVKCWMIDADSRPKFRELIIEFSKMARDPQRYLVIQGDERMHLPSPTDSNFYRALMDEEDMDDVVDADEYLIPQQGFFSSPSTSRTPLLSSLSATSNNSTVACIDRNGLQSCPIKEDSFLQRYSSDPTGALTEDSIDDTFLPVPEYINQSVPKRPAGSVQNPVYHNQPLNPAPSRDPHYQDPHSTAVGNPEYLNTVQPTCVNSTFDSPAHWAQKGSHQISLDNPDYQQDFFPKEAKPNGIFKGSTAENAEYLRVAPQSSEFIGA
EGFR L858R/C797S, sequence (P00533 25-1210 C797S/L858R): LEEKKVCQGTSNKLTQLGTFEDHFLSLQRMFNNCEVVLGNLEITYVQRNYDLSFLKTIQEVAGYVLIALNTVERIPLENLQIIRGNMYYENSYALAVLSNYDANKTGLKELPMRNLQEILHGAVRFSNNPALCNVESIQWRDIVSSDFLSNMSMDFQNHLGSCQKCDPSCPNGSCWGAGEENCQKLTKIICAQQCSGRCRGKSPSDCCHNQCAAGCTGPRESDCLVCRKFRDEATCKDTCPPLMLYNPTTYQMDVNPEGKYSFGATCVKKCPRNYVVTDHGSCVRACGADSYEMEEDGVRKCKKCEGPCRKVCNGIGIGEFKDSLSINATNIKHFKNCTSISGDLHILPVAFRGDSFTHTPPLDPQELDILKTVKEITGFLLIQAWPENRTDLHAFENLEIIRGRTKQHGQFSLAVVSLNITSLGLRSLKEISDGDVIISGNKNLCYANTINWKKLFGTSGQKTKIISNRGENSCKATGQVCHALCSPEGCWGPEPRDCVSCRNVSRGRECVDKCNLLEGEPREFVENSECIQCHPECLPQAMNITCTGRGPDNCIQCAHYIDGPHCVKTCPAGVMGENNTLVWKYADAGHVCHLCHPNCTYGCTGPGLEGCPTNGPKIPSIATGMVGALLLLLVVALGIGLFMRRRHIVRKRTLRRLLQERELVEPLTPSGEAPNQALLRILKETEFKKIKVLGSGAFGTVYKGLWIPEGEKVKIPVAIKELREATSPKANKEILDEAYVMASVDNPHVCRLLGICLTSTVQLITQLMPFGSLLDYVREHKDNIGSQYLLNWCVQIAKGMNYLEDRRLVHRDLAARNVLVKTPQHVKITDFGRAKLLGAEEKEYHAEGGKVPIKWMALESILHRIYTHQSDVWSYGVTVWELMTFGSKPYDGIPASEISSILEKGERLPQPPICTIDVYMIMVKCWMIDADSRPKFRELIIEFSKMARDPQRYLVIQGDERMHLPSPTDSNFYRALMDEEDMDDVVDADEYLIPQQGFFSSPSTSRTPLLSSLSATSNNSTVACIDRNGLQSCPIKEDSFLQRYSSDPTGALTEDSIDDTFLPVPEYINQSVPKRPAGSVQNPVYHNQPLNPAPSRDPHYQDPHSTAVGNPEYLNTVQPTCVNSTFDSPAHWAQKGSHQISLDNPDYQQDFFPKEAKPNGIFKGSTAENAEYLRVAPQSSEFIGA
EGFR Del19/C797S, sequence (P00533 with tags, fused parts or gaps DEL746-750/C797S): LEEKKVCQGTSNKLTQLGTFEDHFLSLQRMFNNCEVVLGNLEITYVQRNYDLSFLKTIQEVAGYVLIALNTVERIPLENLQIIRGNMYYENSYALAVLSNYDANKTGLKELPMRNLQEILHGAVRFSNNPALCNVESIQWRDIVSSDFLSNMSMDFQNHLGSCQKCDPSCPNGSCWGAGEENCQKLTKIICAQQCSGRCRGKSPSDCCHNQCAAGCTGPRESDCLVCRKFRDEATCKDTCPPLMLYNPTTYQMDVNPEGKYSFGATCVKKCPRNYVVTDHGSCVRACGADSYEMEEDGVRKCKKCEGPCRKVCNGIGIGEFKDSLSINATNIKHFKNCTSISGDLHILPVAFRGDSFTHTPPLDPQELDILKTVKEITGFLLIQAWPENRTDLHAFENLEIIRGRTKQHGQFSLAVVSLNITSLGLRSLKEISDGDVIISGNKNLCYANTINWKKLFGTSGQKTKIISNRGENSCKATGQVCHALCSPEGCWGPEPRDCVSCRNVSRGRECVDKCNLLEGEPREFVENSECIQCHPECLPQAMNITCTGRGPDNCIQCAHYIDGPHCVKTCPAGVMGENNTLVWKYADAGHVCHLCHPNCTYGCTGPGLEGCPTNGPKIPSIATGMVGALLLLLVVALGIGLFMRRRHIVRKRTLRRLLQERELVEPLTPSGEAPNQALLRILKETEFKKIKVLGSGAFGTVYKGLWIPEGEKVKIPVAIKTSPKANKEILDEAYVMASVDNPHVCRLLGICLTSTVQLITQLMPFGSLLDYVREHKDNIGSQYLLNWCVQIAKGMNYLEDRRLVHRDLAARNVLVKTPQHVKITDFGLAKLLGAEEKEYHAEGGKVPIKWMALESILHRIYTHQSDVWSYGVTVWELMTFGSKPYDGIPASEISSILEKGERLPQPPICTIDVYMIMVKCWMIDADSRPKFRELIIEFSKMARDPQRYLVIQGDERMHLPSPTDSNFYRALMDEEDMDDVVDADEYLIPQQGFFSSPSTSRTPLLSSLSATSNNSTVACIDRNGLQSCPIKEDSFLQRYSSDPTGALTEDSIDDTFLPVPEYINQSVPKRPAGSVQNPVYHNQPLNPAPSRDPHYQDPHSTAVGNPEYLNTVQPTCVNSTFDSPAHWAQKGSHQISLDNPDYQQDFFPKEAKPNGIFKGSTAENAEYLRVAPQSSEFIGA
EGFR Del19/T790M/C797S, sequence (P00533 with tags, fused parts or gaps DEL746-750/T790M/C797S): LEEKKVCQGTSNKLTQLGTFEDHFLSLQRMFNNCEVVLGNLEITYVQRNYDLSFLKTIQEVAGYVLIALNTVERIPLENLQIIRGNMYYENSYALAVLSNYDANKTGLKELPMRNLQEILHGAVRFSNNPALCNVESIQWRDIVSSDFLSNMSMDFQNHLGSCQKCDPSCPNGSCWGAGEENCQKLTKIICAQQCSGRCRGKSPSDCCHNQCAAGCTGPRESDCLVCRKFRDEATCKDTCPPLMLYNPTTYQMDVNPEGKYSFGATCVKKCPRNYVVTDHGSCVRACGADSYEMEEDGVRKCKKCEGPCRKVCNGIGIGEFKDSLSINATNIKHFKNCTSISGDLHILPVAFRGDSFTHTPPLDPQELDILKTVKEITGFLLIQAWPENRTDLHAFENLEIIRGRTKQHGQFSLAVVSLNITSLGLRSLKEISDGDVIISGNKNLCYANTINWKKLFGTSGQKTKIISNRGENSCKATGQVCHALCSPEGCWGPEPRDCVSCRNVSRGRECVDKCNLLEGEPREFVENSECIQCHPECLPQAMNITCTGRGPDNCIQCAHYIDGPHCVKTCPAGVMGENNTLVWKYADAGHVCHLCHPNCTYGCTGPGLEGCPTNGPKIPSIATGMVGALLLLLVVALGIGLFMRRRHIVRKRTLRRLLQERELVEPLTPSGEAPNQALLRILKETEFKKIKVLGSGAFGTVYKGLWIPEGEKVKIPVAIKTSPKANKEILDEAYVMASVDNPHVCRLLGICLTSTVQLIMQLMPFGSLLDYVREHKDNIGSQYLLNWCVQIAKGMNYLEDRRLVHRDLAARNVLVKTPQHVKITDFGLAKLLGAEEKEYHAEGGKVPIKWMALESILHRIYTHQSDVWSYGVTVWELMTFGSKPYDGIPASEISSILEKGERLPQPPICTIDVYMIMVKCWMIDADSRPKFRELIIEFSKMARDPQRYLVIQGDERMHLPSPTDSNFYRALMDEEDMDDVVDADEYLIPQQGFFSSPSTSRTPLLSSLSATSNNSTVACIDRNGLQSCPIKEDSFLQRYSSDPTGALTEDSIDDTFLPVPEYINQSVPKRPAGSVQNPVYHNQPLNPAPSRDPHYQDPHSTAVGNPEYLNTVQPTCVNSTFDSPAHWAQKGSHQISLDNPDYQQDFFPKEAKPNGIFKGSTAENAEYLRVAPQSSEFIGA

Take `CC1(CO)CCN(c2cc(Nc3ccnc(-c4cnn(S(=O)(=O)C5CC5)c4)n3)ncc2C#Cc2ccc(CN3CCOCC3)cc2)CC1` [Example 253, (1-(2-((2-(1-(Cyclopropylsulfonyl)-1H-pyrazol-4-yl)pyrimidin-4-yl)amino)-5-((4-(morpholinomethyl)phenyl)ethynyl)pyridin-4-yl)-4-methylpiperidin-4-yl)methanol]: the IC50 in experiment [1] (setting [6]) is 4.2 nM; in experiment [1] (setting [7]), 7.1 nM; in experiment [2] (setting [8]) it was 9.8 nM; in experiment [2] (setting [9]), 81.2 nM; in experiment [3] (setting [10]), 5.3 nM; in experiment [3] (setting [11]) it was 3.3 nM. The IC50 in experiment [4] (setting [12]) is 23.9 nM; in experiment [4] (IC50 WT (nM), 100 μM ATP) it was over 10000 nM; in experiment [5] (setting [13]) it was 3.1 nM; in experiment [5] (setting [14]) it was 4.4 nM.

In the case of `CN(C)CCC1CCN(c2cc(Nc3ccnc(-c4cnn(S(=O)(=O)C5CC5)c4)n3)ncc2C#CC2(C)CC2)CC1` [Example 407, 2-(1-(Cyclopropylsulfonyl)-1H-pyrazol-4-yl)-N-(4-(4-(2-(dimethylamino)ethyl)piperidin-1-yl)-5-((1-methylcyclopropyl)ethynyl)pyridin-2-yl)pyrimidin-4-amine], the IC50 in experiment [1] (setting [7]) is 0.7 nM; in experiment [1] (setting [15]), 0.6 nM; in experiment [2] (setting [9]), 13 nM; in experiment [2] (setting [16]) it was 0.8 nM; in experiment [3] (setting [11]) it was 0.3 nM; in experiment [4] (IC50 WT (nM), 100 μM ATP), 1260 nM. Moreover, the IC50 in experiment [4] (setting [17]) is 4.4 nM; in experiment [5] (setting [14]), 0.4 nM.

On to `O=S(=O)(C1CC1)n1cc(-c2nccc(Nc3cc(N4CCC(O)CC4)c(C#Cc4csc(CF)n4)cn3)n2)cn1` [Example 212, 1-(2-((2-(1-(Cyclopropylsulfonyl)-1H-pyrazol-4-yl)pyrimidin-4-yl)amino)-5-((2-(fluoromethyl)thiazol-4-yl)ethynyl)pyridin-4-yl)piperidin-4-ol], for which the IC50 was 44.8 nM in experiment [1] (setting [7]); 97.6 nM in experiment [2] (setting [9]); 1.5 nM in experiment [3] (setting [11]); over 10000 nM in experiment [4] (IC50 WT (nM), 100 μM ATP); 8.9 nM in experiment [5] (setting [14]).

Regarding `O=S(=O)(C1CC1)n1cc(-c2nccc(Nc3cc(N[C@H]4CC[C@@H](CO)CC4)c(C#Cc4cnn(CC(F)(F)F)c4)cn3)n2)cn1` [Example 340, ((1s,4s)-4-((2-((2-(1-(Cyclopropylsulfonyl)-1H-pyrazol-4-yl)pyrimidin-4-yl)amino)-5-((1-(2,2,2-trifluoroethyl)-1H-pyrazol-4-yl)ethynyl)pyridin-4-yl)amino)cyclohexyl)methanol], the IC50 in experiment [1] (setting [7]) came to 7.3 nM; in experiment [1] (setting [15]), 5 nM; in experiment [2] (setting [9]) it was 40.8 nM; in experiment [2] (setting [16]), 10.5 nM; in experiment [3] (setting [11]), 2 nM; in experiment [3] (setting [18]), 1.6 nM. The IC50 in experiment [4] (IC50 WT (nM), 100 μM ATP) is over 10000 nM; in experiment [4] (setting [17]), 26 nM; in experiment [5] (setting [14]) it was 1.6 nM; in experiment [5] (setting [19]), 0.7 nM.

Consider `O=S(=O)(C1CC1)n1cc(-c2nccc(Nc3cc(N4CCC5(CCCO5)CC4)c(C#Cc4cccnc4)cn3)n2)cn1` [Example 282, 2-(1-(Cyclopropylsulfonyl)-1H-pyrazol-4-yl)-N-(5-(pyridin-3-ylethynyl)-4-(1-oxa-8-azaspiro[4.5]decan-8-yl)pyridin-2-yl)pyrimidin-4-amine], for which the IC50 in experiment [1] (setting [6]) came to 8.3 nM; in experiment [1] (setting [7]), 28.6 nM; in experiment [2] (setting [8]), 4.2 nM; in experiment [2] (setting [9]), 39.2 nM; in experiment [3] (setting [10]) it was 5.5 nM; in experiment [3] (setting [11]), 23.8 nM. The IC50 in experiment [4] (setting [12]) is 50.7 nM; in experiment [4] (IC50 WT (nM), 100 μM ATP), over 10000 nM; in experiment [5] (setting [14]), 7.1 nM.

For `Cn1cc(C#Cc2cnc(Nc3ccnc(-c4cnn(S(=O)(=O)C5CC5)c4)n3)cc2N2CCC(F)(CO)CC2)cn1` [Example 73, (1-(2-((2-(1-(Cyclopropylsulfonyl)-1H-pyrazol-4-yl)pyrimidin-4-yl)amino)-5-((1-methyl-1H-pyrazol-4-yl)ethynyl)pyridin-4-yl)-4-fluoropiperidin-4-yl)methanol], the IC50 was 2.8 nM in experiment [1] (setting [7]); 6.6 nM in experiment [2] (setting [9]); 0.4 nM in experiment [3] (setting [11]); 7550 nM in experiment [4] (IC50 WT (nM), 100 μM ATP); 1.2 nM in experiment [5] (setting [14]).

On to `COCCNC1CCN(c2cc(Nc3ccnc(-c4cnn(S(=O)(=O)C5CC5)c4)n3)ncc2C#Cc2cnn(C)c2)CC1` [Example 132, 2-(1-(Cyclopropylsulfonyl)-1H-pyrazol-4-yl)-N-(4-(4-((2-methoxyethyl)amino)piperidin-1-yl)-5-((1-methyl-1H-pyrazol-4-yl)ethynyl)pyridin-2-yl)pyrimidin-4-amine], for which the IC50 is 131 nM in experiment [1] (setting [7]); 46.4 nM in experiment [2] (setting [9]); 1.3 nM in experiment [3] (setting [11]); over 10000 nM in experiment [4] (IC50 WT (nM), 100 μM ATP); 4.2 nM in experiment [5] (setting [14]).

As to `CN(C)Cc1ccc(CNc2cc(Nc3ccnc(-c4cnn(S(=O)(=O)C5CC5)c4)n3)ncc2C#Cc2cnn(CC(F)F)c2)cc1` [Example 52, N^2-(2-(1-(Cyclopropylsulfonyl)-1H-pyrazol-4-yl)pyrimidin-4-yl)-5-((1-(2,2-difluoroethyl)-1H-pyrazol-4-yl)ethynyl)-N^4-(4-((dimethylamino)methyl)benzyl)pyridine-2,4-diamine], the IC50 came to 76.9 nM in experiment [1] (setting [20]); 65.6 nM in experiment [2] (setting [21]); 1.4 nM in experiment [3] (setting [22]); 304 nM in experiment [4] (setting [23]); 3.8 nM in experiment [5] (setting [24]).

As for `Cn1cnc(C#Cc2cnc(Nc3ccnc(-c4cnn(S(=O)(=O)C5CC5)c4)n3)cc2N[C@H]2CC[C@@H](O)CC2)c1` [Example 216, (1s,4s)-4-((2-((2-(1-(Cyclopropylsulfonyl)-1H-pyrazol-4-yl)pyrimidin-4-yl)amino)-5-((1-methyl-1H-imidazol-4-yl)ethynyl)pyridin-4-yl)amino)cyclohexan-1-ol], the IC50 in experiment [1] (read-out: IC50 Del19/C797S (nM), 100 μM ATP) is 4.9 nM; in experiment [2] (read-out: IC50 L858R/C797S (nM), 100 μM ATP), 28 nM; in experiment [3] (read-out: IC50 Del19/T790M/C797S (nM), 100 μM ATP), 0.7 nM; in experiment [4] (read-out: IC50 WT (nM), 100 μM ATP) it was over 10000 nM; in experiment [5] (read-out: IC50 L858R/T790M/C797S (nM), 100 μM ATP) it was 0.8 nM.

Regarding `CC1(O)CC2(CCN(c3cc(Nc4ccnc(-c5cnn(S(=O)(=O)C6CC6)c5)n4)ncc3C#Cc3cnn(C(F)(F)F)c3)CC2)C1` [Example 104, 7-(2-((2-(1-(Cyclopropylsulfonyl)-1H-pyrazol-4-yl)pyrimidin-4-yl)amino)-5-((1-(trifluoromethyl)-1H-pyrazol-4-yl)ethynyl)pyridin-4-yl)-2-methyl-7-azaspiro[3.5]nonan-2-ol], the IC50 is 12.4 nM in experiment [1] (setting [7]); 9.7 nM in experiment [1] (setting [20]); 119 nM in experiment [2] (setting [9]); 32.3 nM in experiment [2] (setting [21]); 4.1 nM in experiment [3] (setting [11]); 3.1 nM in experiment [3] (setting [22]). Also, the IC50 in experiment [4] (IC50 WT (nM), 100 μM ATP) is over 10000 nM; in experiment [4] (setting [23]), 89.4 nM; in experiment [5] (setting [14]), 3 nM; in experiment [5] (setting [24]), 1.1 nM.

As to `CC(C)(O)[C@H]1CC[C@@H](Nc2cc(Nc3ccnc(-c4cnn(S(=O)(=O)C5CC5)c4)n3)ncc2C#Cc2cnn(C(F)(F)F)c2)CC1` [Example 337, 2-((1s,4s)-4-((2-((2-(1-(Cyclopropylsulfonyl)-1H-pyrazol-4-yl)pyrimidin-4-yl)amino)-5-((1-(trifluoromethyl)-1H-pyrazol-4-yl)ethynyl)pyridin-4-yl)amino)cyclohexyl)propan-2-ol], the IC50 in experiment [1] (setting [7]) was 325 nM; in experiment [1] (setting [15]), 197 nM; in experiment [2] (setting [9]), over 10000 nM; in experiment [3] (setting [11]), 8 nM; in experiment [3] (setting [18]), 6 nM; in experiment [4] (IC50 WT (nM), 100 μM ATP) it was over 10000 nM. Further, the IC50 in experiment [5] (setting [14]) turned out to be 10.9 nM; in experiment [5] (setting [19]), 3.3 nM.

Take `CN1CCN(Cc2ccc(C#Cc3cnc(Nc4ccnc(-c5cnn(S(=O)(=O)C6CC6)c5)n4)cc3N3CCC(C)(CO)CC3)cc2)CC1` [Example 164, (1-(2-((2-(1-(Cyclopropylsulfonyl)-1H-pyrazol-4-yl)pyrimidin-4-yl)amino)-5-((4-((4-methylpiperazin-1-yl)methyl)phenyl)ethynyl)pyridin-4-yl)-4-methylpiperidin-4-yl)methanol]: the IC50 in experiment [1] (setting [6]) came out at 0.9 nM; in experiment [1] (setting [7]), 1.6 nM; in experiment [2] (setting [8]), 0.6 nM; in experiment [2] (setting [9]) it was 2.2 nM; in experiment [3] (setting [10]), 0.7 nM; in experiment [3] (setting [11]) it was 0.6 nM. Further, the IC50 in experiment [4] (setting [12]) is 1.5 nM; in experiment [4] (IC50 WT (nM), 100 μM ATP), 236 nM; in experiment [5] (setting [13]), 0.2 nM; in experiment [5] (setting [14]), 0.5 nM.
